Laboratory results: patent publication US12624127B2, “Chitosan derivatives as antimicrobials and synergistic combinations thereof” (priority 2022, dated 2026)

What was measured:
A. baumannii = test: MIC determination, broth micro dilution; format: cell-based, Acinetobacter baumannii; settings: A. baumannii AB-1, antibiotic alone; for MIC: Acinetobacter baumannii, read-out: MIC of antibiotic without 2,6-DAC
Procedure: (§1) MIC values were determined using a broth micro dilution method. Bacteria cells were grown overnight at 37° C. in MHB to a mid-log phase (OD600 between 0.4-0.5 for each organism) and diluted in MHB to 10^5 CFU/mL. […] 50 μL of the 1-5×10^5 CFU/mL bacterial cultures (final concentration) was aliquoted into 96-well microtiter plates and mixed with 50 μL of two-fold dilutions of the polymer or antibiotics and incubated for 16-18 h at 37° C. with shaking at 200 rpm.
(§2) 2,6-DAC was screened as a potentiating agent for synergistic combinations with antibiotics against both A. baumannii AB-1 and MRSA USA300. Before the synergy tests, the MIC values of antibiotics were tested against MDR A. baumannii AB-1 and MRSA USA300 by following the MIC determination protocol in Example 4. Then, the synergy of 2,6-DAC with antibiotics was determined.

A. baumannii AB-1 [1] = test: Checkerboard synergy assay of 2,6-DAC with antibiotics; format: cell-based, Acinetobacter baumannii; settings: for MIC of antibiotic +16 μg/mL 2,6-DAC / MIC of antibiotic +32 μg/mL 2,6-DAC: A. baumannii AB-1 (MDR); for Synergy with 2,6-DAC (in words) / MIC, antibiotic in combination: A. baumannii AB-1; for MIC, antibiotic in combination: antibiotic concentration in combination with 2,6-DAC (8 μg/mL)
Procedure: as §2
(§3) Synergy was measured by time killing assay and checkerboard assay. Time killing assay was performed by following the protocol in Example 4. Checkerboard susceptibility assays to measure combinations of antimicrobials were performed in MHB at 37° C. as previously described (K. R. V. Thappeta et al., ACS Infect. Dis. 2020, 6, 1228-1237; and Z. Si et al., Angew. Chem. Int. Ed. 2020, 59, 6819-6826). The fractional inhibitory concentration (FIC) indices were calculated according to the following formula: […]

A. baumannii AB-1 [2] = test: Time killing assay; format: cell-based, Acinetobacter baumannii; settings: for Killing of bacteria by single agent (in words): sub-inhibitory concentration, alone, 24 h
Procedure: The plates were sealed and incubated at 37° C. with shaking at 200 rpm.
At 0, 0.5, 1, 2, 3, 5, and 24 h post-inoculation, each well was thoroughly mixed with a multi-channel pipette and 20 μL of sample was removed, serially diluted in sterile PBS, plated on LB agar plates, and incubated at 37° C. for 12 h. Colonies were counted to determine the CFU/mL at each time point.
as §3

MRSA = test: MIC determination, broth micro dilution; format: cell-based; settings: MRSA USA300; for MIC: Staphylococcus aureus, read-out: MIC of antibiotic alone / without 2,6-DAC
Procedure: as §1, §2

MRSA USA300 = test: Checkerboard synergy assay of 2,6-DAC with antibiotics; format: cell-based; settings: for MIC, antibiotic in combination: antibiotic concentration in combination with 2,6-DAC
Procedure: as §2, §3

MDR A. baumannii (AB-1) = test: Intraperitoneal infection model in BALB/c mice; format: in vivo, Acinetobacter baumannii
Procedure: Bacterial cultures of MDR A. baumannii (AB-1) were prepared and used to infect 8-week-old female BALB/c mice. 10^6 CFU/mL of AB-1 (300 μL) was injected into the intraperitoneal cavity to introduce the infection. After 2 h of infection, specific dosage of antibiotic (novobiocin or rifampicin, 10 mg/kg), 2,6-DAC (25 mg/kg) or the combination of antibiotic (novobiocin or rifampicin, 10 mg/kg) and 2,6-DAC (25 mg/kg) were injected into the intraperitoneal cavity. PBS was used as a control. Mice euthanasian at the indicated time points (18 h) was achieved by CO2 asphyxiation followed by cervical dislocation. The intraperitoneal fluid, kidney, spleen and liver were recovered, and counted for bacteria concentration. For histopathological analysis, the kidney, spleen and liver were fixed in 10% neutral buffered formalin and embedded in paraffin. The paraffin-embedded sections were stained with H&E. The animal studies were carried out in accordance to protocol (A20029) approved by the NTU Institutional Animal Care and Use Committee (NTU-IACUC).

| Compound | MIC (A. baumannii) [µg/mL] | MIC of antibiotic +16 μg/mL 2,6-DAC (A. baumannii AB-1 [1]) [µg/mL] | MIC of antibiotic +32 μg/mL 2,6-DAC (A. baumannii AB-1 [1]) [µg/mL] | MIC (MRSA) [µg/mL] | Synergy with 2,6-DAC (in words) (MRSA USA300) | further results |
| --- | --- | --- | --- | --- | --- | --- |
| CC1COc2c(N3CCN(C)CC3)c(F)cc3c(=O)c(C(=O)O)cn1c23 (stereo not shown) [Ofloxacin] | 8 | 8 | 4 | – | – | – |
| NCC[C@H](O)C(=O)N[C@@H]1C[C@H](N)[C@@H](O[C@H]2O[C@H](CN)[C@@H](O)[C@H](O)[C@H]2O)[C@H](O)[C@H]1O[C@H]1O[C@H](CO)[C@@H](O)[C@H](N)[C@H]1O [Amikacin] | > 128 | – | – | 1.56 | no synergy | Bactericidal efficacy, combination with 2,6-DAC (A. baumannii AB-1 [2]; 2,6-DAC 0.5×MIC + amikacin 0.002×MIC): 4 log10; Killing of bacteria by single agent (in words) (A. baumannii AB-1 [2]): no killing of bacteria; MIC of antibiotic without 2,6-DAC (A. baumannii): >128 µg/mL; Synergy with 2,6-DAC (in words) (A. baumannii AB-1 [1]): synergistic activity; MIC, antibiotic in combination (A. baumannii AB-1 [1]): 2 µg/mL |
| CO[C@@]1(NC(=O)Cc2cccs2)C(=O)N2C(C(=O)O)=C(COC(N)=O)CS[C@@H]21 [Cefoxitin] | > 128 | 128 | 8 | – | – | – |
| COc1cc(Cc2cnc(N)nc2N)cc(OC)c1OC [Trimethoprim] | – | – | – | – | no synergy | – |
| C[C@]1(Cn2ccnn2)[C@H](C(=O)O)N2C(=O)C[C@H]2S1(=O)=O [Tazobactam] | 64 | – | – | – | – | Bactericidal efficacy, combination with 2,6-DAC (A. baumannii AB-1 [2]; 2,6-DAC 0.5×MIC + tazobactam 0.06×MIC): 4 log10; Killing of bacteria by single agent (in words) (A. baumannii AB-1 [2]): no killing of bacteria; Synergy with 2,6-DAC (in words) (A. baumannii AB-1 [1]): synergistic activity; MIC, antibiotic in combination (A. baumannii AB-1 [1]): 16 µg/mL |
| CO[C@@H]1[C@@H](OC(N)=O)[C@@H](O)[C@H](Oc2ccc3c(O)c(NC(=O)c4ccc(O)c(CC=C(C)C)c4)c(=O)oc3c2C)OC1(C)C [Novobiocin] | 8 | – | – | 0.125 | – | Bacteria killing, combination with 2,6-DAC (A. baumannii AB-1 [2]; 2,6-DAC 0.25×MIC + novobiocin 0.125 to 0.25×MIC): 4 log10; Killing of bacteria by single agent (in words) (A. baumannii AB-1 [2]): no killing of bacteria; MIC, antibiotic in combination (MRSA USA300): 0.03125 µg/mL; Synergy with 2,6-DAC (in words) (A. baumannii AB-1 [1]): synergistic activity; MIC, antibiotic in combination (A. baumannii AB-1 [1]): 0.5 µg/mL; Histology of liver, spleen and kidney, combination treatment (in words) (MDR A. baumannii (AB-1); 2,6-DAC + novobiocin, H&E): significantly alleviated these tissue abnormalities; Histology of liver, spleen and kidney, individual treatment (in words) (MDR A. baumannii (AB-1); alone, H&E, vs infection control): did not improve the tissue appearance; Efficacy of single agent in intraperitoneal fluid and distal organs (in words) (MDR A. baumannii (AB-1); alone: 2,6-DAC 25 mg/kg or novobiocin 10 mg/kg, i.p., 18 h): ineffective |
| C[C@@H](O)[C@H]1C(=O)N2C(C(=O)O)=C(SCCN=CN)C[C@H]12 [Imipenem] | 64 | 8 | 1 | – | – | – |
| Polymyxin B | – | – | – | – | no synergy | MIC of antibiotic alone / without 2,6-DAC (MRSA): 32 µg/mL |
| CC[C@H]1OC(=O)[C@H](C)[C@@H](O[C@H]2C[C@@](C)(OC)[C@@H](O)[C@H](C)O2)[C@H](C)[C@@H](O[C@@H]2O[C@H](C)C[C@H](N(C)C)[C@H]2O)[C@](C)(O)C[C@@H](C)CN(C)[C@H](C)[C@@H](O)[C@]1(C)O [Azithromycin] | 128 | 64 | 1 | – | – | – |
| O=C(N[C@H](CO)[C@H](O)c1ccc([N+](=O)[O-])cc1)C(Cl)Cl [Chloramphenicol] | – | – | – | 4 | no synergy | – |
| NC[C@H]1O[C@H](O[C@H]2[C@H](O)[C@@H](O[C@H]3O[C@H](CO)[C@@H](O)[C@H](N)[C@H]3O)[C@H](N)C[C@@H]2N)[C@H](N)C[C@@H]1O [Tobramycin] | > 128 | – | – | 1 | – | Reduction, combination with 2,6-DAC (A. baumannii AB-1 [2]; 2,6-DAC 0.5×MIC + tobramycin 0.002×MIC): 2 log10; Killing of bacteria by single agent (in words) (A. baumannii AB-1 [2]): no killing of bacteria; MIC of antibiotic without 2,6-DAC (A. baumannii): >128 µg/mL; MIC, antibiotic in combination (MRSA USA300): 0.25 µg/mL; Synergy with 2,6-DAC (in words) (A. baumannii AB-1 [1]): synergistic activity; MIC, antibiotic in combination (A. baumannii AB-1 [1]): 2 µg/mL |
| CC1(C)S[C@@H]2[C@H](NC(=O)[C@H](N)c3ccc(O)cc3)C(=O)N2[C@H]1C(=O)O [Amoxicillin] | > 128 | 128 | 16 | – | – | – |
| C[C@@H](O)[C@H]1C(=O)N2C(C(=O)O)=C(S[C@@H]3CN[C@H](C(=O)Nc4cccc(C(=O)O)c4)C3)[C@H](C)[C@H]12 [Ertapenem] | > 128 | 4 | 2 | – | – | – |
| O=C(O)c1cn(C2CC2)c2cc(N3CCNCC3)c(F)cc2c1=O [Ciprofloxacin] | – | – | – | 8 | no synergy | – |
| CCN1CCN(C(=O)N[C@@H](C(=O)N[C@@H]2C(=O)N3[C@@H]2SC(C)(C)[C@@H]3C(=O)O)c2ccccc2)C(=O)C1=O [Piperacillin] | – | – | – | 4 | no synergy | – |
| CC[C@H]1OC(=O)[C@H](C)[C@@H](O[C@H]2C[C@@](C)(OC)[C@@H](O)[C@H](C)O2)[C@H](C)[C@@H](O[C@@H]2O[C@H](C)C[C@H](N(C)C)[C@H]2O)[C@](C)(O)C[C@@H](C)C(=O)[C@H](C)[C@@H](O)[C@]1(C)O [Erythromycin] | > 128 | 64 | 4 | – | – | – |
| C[C@@H](O)[C@H]1C(=O)N2C(C(=O)O)=C(S[C@@H]3CN[C@H](CNS(N)(=O)=O)C3)[C@H](C)[C@H]12 [Doripenem] | 32 | 4 | ≤2 | – | – | – |
| C[C@@H](O)[C@H]1C(=O)N2C(C(=O)O)=C(S[C@@H]3CN[C@H](C(=O)N(C)C)C3)[C@H](C)[C@H]12 [Meropenem] | 64 | 4 | 1 | 1 | – | MIC, antibiotic in combination (MRSA USA300): 0.5 µg/mL |
| C[C@H]1COc2c(N3CCN(C)CC3)c(F)cc3c(=O)c(C(=O)O)cn1c23 [Levofloxacin] | 4 | 2 | ≤1 | – | – | – |
| CC1(C)S[C@@H]2[C@H](NC(=O)C(C(=O)O)c3ccccc3)C(=O)N2[C@H]1C(=O)O (stereo partly shown) [Carbenicillin] | – | – | – | 8 | – | MIC, antibiotic in combination (MRSA USA300): 2 µg/mL |
| Ramoplanin | – | 128 | 2 | – | – | MIC of antibiotic without 2,6-DAC (A. baumannii): >128 µg/mL |
| CC(C)(O/N=C(\C(=O)N[C@@H]1C(=O)N2C(C(=O)[O-])=C(C[n+]3ccccc3)CS[C@H]12)c1csc(N)n1)C(=O)O [Ceftazidime] | > 128 | 128 | 2 | 16 | no synergy | – |
| CC1(C)S[C@@H]2[C@H](NC(=O)[C@H](N)c3ccccc3)C(=O)N2[C@H]1C(=O)O [Ampicillin] | – | – | – | 4 | – | MIC, antibiotic in combination (MRSA USA300): 2 µg/mL |
| Colistin | – | – | – | – | no synergy | MIC of antibiotic alone / without 2,6-DAC (MRSA): 50 µg/mL |
| CC(=O)OCC1=C(C(=O)O)N2C(=O)[C@@H](NC(=O)Cc3cccs3)[C@H]2SC1 [Cephalothins] | – | 128 | 2 | – | – | MIC of antibiotic without 2,6-DAC (A. baumannii): >128 µg/mL |
| CO/N=C(\C(=O)N[C@@H]1C(=O)N2C(C(=O)O)=C(CSc3nc(=O)c(=O)[nH]n3C)CS[C@H]12)c1csc(N)n1 [Ceftriaxone] | > 128 | 128 | 2 | 16 | no synergy | – |
